# US20240279602A1, “METHOD FOR PRODUCING CEREBRAL CORTICAL CELL PREPARATION DERIVED FROM HUMAN PLURIPOTENT STEM CELLS” (Kyoto University, priority 2021, published 2024)
# Tested on: cerebral organoids
# Experiment: Flow cytometry of marker expression after DAPT treatment
# Type: cell-based, human
# Procedure: Cerebral organoids, cerebral cortical cell aggregates, and high-purity cerebral cortical cell aggregates were dispersed into single cells by using dispersing solution for neural cells (FUJIFILM Wako Pure Chemical Corporation), fixed by using Fixation Buffer (BD Biosciences) at 4° C. for 30 minutes, then treated with Perm/Wash buffer (BD Biosciences) at room temperature for 15 minutes, subjected to double or triple staining, and analyzed by using an Aria III. The analysis software used was FACSDiva software (BD). The primary antibodies and secondary antibodies used are shown in the following. • PerCP-Cy5.5 Mouse IgGI k isotype control: 550795 (BD Biosciences) Alexa 647 Mouse Anti-human Oct3/4 antigen: 560329 (BD Biosciences) • Tra-2-49/6E-FITC antibody: FCMAB133F (Merck) • Alexa647 mouse anti β-tubulin Class III: 560394 (BD) • PerCP-Cy5.5 Mouse anti-Human Sox1: 561549 (BD) • Alexa647 mouse anti-Human Pax6: 561165(BD) • Alexa488 mouse anti-Ki67: 562249 (BD) • Alexa488 rat anti-Ctip2 antibody: ab123449 (Abcam)
# Next, cell aggregates immediately after DAPT treatment (immediately after the completion of step (ii)) were analyzed for the proportions of constituent cells by means of flow cytometry. Cerebral organoids on Day 40 were subjected to DAPT treatment for 3 days, and expressions of marker genes were then analyzed by flow cytometry.
# Furthermore, iPS cells on Day 0 (undifferentiated iPS cells), organoids not subjected to DAPT treatment (Ctrl, without step (ii)), organoids subjected to DAPT treatment for 3 days (Day 40 to 43) (DAPT 3d, with step (ii)), and organoids subjected to DAPT treatment for 3 days and subsequently cultured again, as cell aggregates without being dispersed into cells, with a culture medium removed of DAPT for 4 days (DAPT 3d+Release 4d, with step (ii) and step (iv), and without step (iii)) were analyzed by flow cytometry; the results are shown in FIG. 15.
# Culture was performed in the same manner as the scheme in FIG. 3 as in Example 1 from −Day 7 to Day 35. A culture medium obtained by adding 5 μM SB431542 to StemFit culture medium without solution C(=bFGF-free culture medium) was used in step (1) in the case of “with preparation for neural differentiation” (with step (1)), and StemFit culture medium was used in the case of “without preparation for neural differentiation” (without step (1)). Thereafter, cerebral cortical cell aggregates were induced by the method described for step (ii) in Example 4, and evaluated by immunostaining. In addition, high-density cerebral cortical cell aggregates were induced by dispersing into single cells and then reaggregating the single cells by the method described for step (iii) and step (iv) in Example 4, and analyzed by flow cytometry.
# In the “single-cell DAPT method (DAPT treatment is performed in step (iv))” in FIG. 24(B), cerebral organoids were screened on day 38 after the initiation of induction of differentiation and dispersed into single cells by the method described for step (iii) in Example 4, and the cells were then suspended in a culture medium obtained by adding 10 ng/mL GDNF, 20 ng/mL BDNF, 200 μM ascorbic acid, 400 μM dibutyryl-cAMP, and 30 μM Y-27632 to the culture medium in step (2b) with addition of DAPT at a concentration of 0 μM, 0.1 μM, 1 μM, or 10 μM. Subsequently, the cells were regathered by the method described for step (iv) in Example 4 in the presence of DAPT, and cultured for 1 day, 2 days, or 3 days. Thereafter, the culture medium was switched to a culture medium obtained by adding 10 ng/mL GDNF, 20 ng/mL BDNF, 200 μM ascorbic acid, and 400 μM dibutyryl-cAMP to the culture medium in step (2b), and culture was continued until day 10 after the initiation of reaggregation. The cells on day 3, day 4, or day 10 after the initiation of reaggregation were analyzed by RT-qPCR, and the cells on day 10 were analyzed by flow cytometry; the results are shown in FIGS. 25 to 27. […]
# [1] = DAPT 3d+Release 4d: DAPT 3 days, then 4 days in medium removed of DAPT, without dispersion
# [2] = single-cell DAPT method (step (iv)), DAPT raised from 0 μM to 10 μM, 3 days treatment, 10 days culture
# [3] = week 5 organoids dispersed, 10 μM DAPT 3 days, then DAPT-free culture to 4 days vs 14 days
# [4] = without preparation for neural differentiation (without step (1)), DAPT treatment, dispersion and reaggregation
compound,measurement,setting,value
"C[C@H](NC(=O)Cc1cc(F)cc(F)c1)C(=O)N[C@H](C(=O)OC(C)(C)C)c1ccccc1 [DAPT, N-[N-(3,5-difluorophenacetyl)-L-alanyl]-S-phenylglycine t-butyl ester]",proportion of Ki67/Sox1/Pax6-triple-positive cells,[1],0%
same,proportion of cells co-positive for Ctip2 and βIII-tubulin,[1],87.4%
same,proportion of Pax6-positive/Sox1-positive/Ki67-positive cells (proliferative cells),"cerebral organoids on Day 40, DAPT treatment for 3 days (DAPT 3d)",0.01%
same,proportion of Ctip2/βIII-tubulin-double-positive cells,"cerebral organoids on Day 40, DAPT treatment for 3 days (DAPT 3d), all viable cells",86.1%
same,proportion of Pax6/Ki67-double-positive neural stem cells (radial glia),"cerebral organoids on Day 40, DAPT treatment for 3 days, all viable cells",1.5%
same,cells with co-expression of Tra2-49/6E and Oct4 (undifferentiated iPS cell indicator),"organoids under any of the conditions (DAPT 3d, DAPT 3d+Release 4d)",not detected
same,proportion of Ctip2/βTubIII (Tuj1)-double-positive cells,[2],89.6%
same,proportion of Pax6-positive/Sox1-positive/Ki67-positive cells (proliferative cells),[2],0.8%
same,proportion of Ctip2/Tuj1-co-positive cells,[3],increase
same,proportion of Pax6/Ki67-double-positive cells and of Pax6/Ki67/Sox1-triple-positive cells,[3],decreased as the culture period after DAPT treatment was extended
same,proportion of Ctip2/βTubIII-double-positive cells,[4],85.9%
same,proportion of Pax6-positive/Sox1-positive/Ki67-positive cells (proliferative cells),[4],0%
same,proportion of Pax6/Ki67-double-positive neural stem cells (radial glia),[4],1.9%
